Assay results published in PubChem BioAssay (NCI).
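All cell lines were grown in 96-well plates and treated with compound for 48 hours. GI50: concentration for 50% inhibition of growth. Definition used: TGI = concentration required for complete inhibition of growth.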

Tests used:
Test in all cases: NCI tumour cell line growth inhibition, 48 h
786-0 renal = tested on: 786-0 renal
A498 renal = tested on: A498 renal
A549 NSCLC = tested on: A549 NSCLC
ACHN renal = tested on: ACHN renal
BT-549 breast = tested on: BT-549 breast
CAKI-1 renal = tested on: CAKI-1 renal
CCRF-CEM leukemia = tested on: CCRF-CEM leukemia
COLO 205 colon = tested on: COLO 205 colon
DU-145 prostate = tested on: DU-145 prostate
EKVX NSCLC = tested on: EKVX NSCLC
HCC-2998 colon = tested on: HCC-2998 colon
HCT-116 colon = tested on: HCT-116 colon
HCT-15 colon = tested on: HCT-15 colon
HL-60(TB) leukemia = tested on: HL-60(TB) leukemia
HOP-62 NSCLC = tested on: HOP-62 NSCLC
HOP-92 NSCLC = tested on: HOP-92 NSCLC
HS 578T breast = tested on: HS 578T breast
HT29 colon = tested on: HT29 colon
IGROV1 ovarian = tested on: IGROV1 ovarian
K-562 leukemia = tested on: K-562 leukemia
KM12 colon = tested on: KM12 colon
LOX IMVI melanoma = tested on: LOX IMVI melanoma
M14 melanoma = tested on: M14 melanoma
MALME-3M melanoma = tested on: MALME-3M melanoma
MCF7 breast = tested on: MCF7 breast
MDA-MB-231 breast = tested on: MDA-MB-231 breast
MDA-MB-435 = tested on: MDA-MB-435
MOLT-4 leukemia = tested on: MOLT-4 leukemia
NCI-H226 lung = tested on: NCI-H226 lung
NCI-H460 lung = tested on: NCI-H460 lung
NCI-H522 lung = tested on: NCI-H522 lung
NCI/ADR-RES ovarian = tested on: NCI/ADR-RES ovarian
OVCAR-3 ovarian = tested on: OVCAR-3 ovarian
OVCAR-4 ovarian = tested on: OVCAR-4 ovarian
OVCAR-5 ovarian = tested on: OVCAR-5 ovarian
OVCAR-8 ovarian = tested on: OVCAR-8 ovarian
PC-3 prostate = tested on: PC-3 prostate
RPMI-8226 leukemia = tested on: RPMI-8226 leukemia
RXF 393 renal = tested on: RXF 393 renal
SF-268 CNS = tested on: SF-268 CNS
SF-295 CNS = tested on: SF-295 CNS
SF-539 CNS = tested on: SF-539 CNS
SK-MEL-2 melanoma = tested on: SK-MEL-2 melanoma
SK-MEL-28 melanoma = tested on: SK-MEL-28 melanoma
SK-MEL-5 melanoma = tested on: SK-MEL-5 melanoma
SK-OV-3 ovarian = tested on: SK-OV-3 ovarian
SN12C renal = tested on: SN12C renal
SNB-19 CNS = tested on: SNB-19 CNS
SNB-75 CNS = tested on: SNB-75 CNS
SR leukemia = tested on: SR leukemia
SW-620 colon = tested on: SW-620 colon
T-47D breast = tested on: T-47D breast
TK-10 renal = tested on: TK-10 renal
U251 CNS = tested on: U251 CNS
UACC-257 melanoma = tested on: UACC-257 melanoma
UACC-62 melanoma = tested on: UACC-62 melanoma
UO-31 renal = tested on: UO-31 renal

COc1ccc(CCOc2cc3c(cc2OC)CCN(C(=O)NCc2cocn2)C3c2ccc(C)cc2C)cc1 (centres undefined)
GI50 (786-0 renal): 617 nM
TGI (786-0 renal): 8110 nM
GI50 (A498 renal): 1480 nM
TGI (A498 renal): 6430 nM
GI50 (A549 NSCLC): 1080 nM
TGI (A549 NSCLC): > 100000 nM
GI50 (ACHN renal): 628 nM
TGI (ACHN renal): 8890 nM
GI50 (BT-549 breast): 1010 nM
TGI (BT-549 breast): 3570 nM
GI50 (CAKI-1 renal): 740 nM
TGI (CAKI-1 renal): 7240 nM
GI50 (CCRF-CEM leukemia): 458 nM
TGI (CCRF-CEM leukemia): 9660 nM
GI50 (COLO 205 colon): 835 nM
TGI (COLO 205 colon): 2760 nM
GI50 (DU-145 prostate): 790 nM
TGI (DU-145 prostate): 5890 nM
GI50 (EKVX NSCLC): 3140 nM
TGI (EKVX NSCLC): > 100000 nM
GI50 (HCC-2998 colon): 1320 nM
TGI (HCC-2998 colon): > 35000 nM
GI50 (HCT-116 colon): 404 nM
TGI (HCT-116 colon): 21800 nM
GI50 (HCT-15 colon): 407 nM
TGI (HCT-15 colon): > 37500 nM
GI50 (HL-60(TB) leukemia): 273 nM
TGI (HL-60(TB) leukemia): 833 nM
GI50 (HOP-62 NSCLC): 1020 nM
TGI (HOP-62 NSCLC): 17100 nM
GI50 (HOP-92 NSCLC): 3470 nM
TGI (HOP-92 NSCLC): 18200 nM
GI50 (HS 578T breast): 845 nM
TGI (HS 578T breast): 5150 nM
GI50 (HT29 colon): 371 nM
TGI (HT29 colon): 2150 nM
GI50 (IGROV1 ovarian): 905 nM
TGI (IGROV1 ovarian): > 100000 nM
GI50 (K-562 leukemia): 355 nM
TGI (K-562 leukemia): > 55200 nM
GI50 (KM12 colon): 542 nM
TGI (KM12 colon): 8200 nM
GI50 (LOX IMVI melanoma): 388 nM
TGI (LOX IMVI melanoma): 4610 nM
GI50 (M14 melanoma): 765 nM
TGI (M14 melanoma): 5740 nM
GI50 (MALME-3M melanoma): 1490 nM
TGI (MALME-3M melanoma): 11700 nM
GI50 (MCF7 breast): 452 nM
TGI (MCF7 breast): > 38700 nM
GI50 (MDA-MB-231 breast): 834 nM
TGI (MDA-MB-231 breast): 6490 nM
GI50 (MDA-MB-435): 296 nM
TGI (MDA-MB-435): 919 nM
GI50 (MOLT-4 leukemia): 537 nM
TGI (MOLT-4 leukemia): > 24800 nM
GI50 (NCI-H226 lung): 1020 nM
TGI (NCI-H226 lung): 5160 nM
GI50 (NCI-H460 lung): 374 nM
TGI (NCI-H460 lung): 3810 nM
GI50 (NCI-H522 lung): 243 nM
TGI (NCI-H522 lung): 634 nM
GI50 (NCI/ADR-RES ovarian): 610 nM
TGI (NCI/ADR-RES ovarian): > 34400 nM
GI50 (OVCAR-3 ovarian): 603 nM
TGI (OVCAR-3 ovarian): 10300 nM
GI50 (OVCAR-4 ovarian): 1510 nM
TGI (OVCAR-4 ovarian): > 100000 nM
GI50 (OVCAR-5 ovarian): 1350 nM
TGI (OVCAR-5 ovarian): > 100000 nM
GI50 (OVCAR-8 ovarian): 358 nM
TGI (OVCAR-8 ovarian): 10100 nM
GI50 (PC-3 prostate): 631 nM
TGI (PC-3 prostate): > 35100 nM
GI50 (RPMI-8226 leukemia): 370 nM
TGI (RPMI-8226 leukemia): 1660 nM
GI50 (RXF 393 renal): 425 nM
TGI (RXF 393 renal): 2540 nM
GI50 (SF-268 CNS): 940 nM
TGI (SF-268 CNS): 8920 nM
GI50 (SF-295 CNS): 897 nM
TGI (SF-295 CNS): 7030 nM
GI50 (SF-539 CNS): 346 nM
TGI (SF-539 CNS): 1630 nM
GI50 (SK-MEL-2 melanoma): 946 nM
TGI (SK-MEL-2 melanoma): 3890 nM
GI50 (SK-MEL-28 melanoma): 1010 nM
TGI (SK-MEL-28 melanoma): 7290 nM
GI50 (SK-MEL-5 melanoma): 509 nM
TGI (SK-MEL-5 melanoma): 1390 nM
GI50 (SK-OV-3 ovarian): 1260 nM
TGI (SK-OV-3 ovarian): 40700 nM
GI50 (SN12C renal): 831 nM
TGI (SN12C renal): 4850 nM
GI50 (SNB-19 CNS): 1600 nM
TGI (SNB-19 CNS): 21900 nM
GI50 (SNB-75 CNS): 761 nM
TGI (SNB-75 CNS): 5260 nM
GI50 (SR leukemia): 341 nM
TGI (SR leukemia): 2030 nM
GI50 (SW-620 colon): 507 nM
TGI (SW-620 colon): > 100000 nM
GI50 (T-47D breast): 1060 nM
TGI (T-47D breast): 9020 nM
GI50 (TK-10 renal): 2960 nM
TGI (TK-10 renal): 26700 nM
GI50 (U251 CNS): 605 nM
TGI (U251 CNS): 4530 nM
GI50 (UACC-257 melanoma): 1390 nM
TGI (UACC-257 melanoma): 19800 nM
GI50 (UACC-62 melanoma): 495 nM
TGI (UACC-62 melanoma): 5930 nM
GI50 (UO-31 renal): 1180 nM
TGI (UO-31 renal): 14200 nM
